Measured values from US20240041878A1, “APELIN RECEPTOR MODULATORS FOR TREATMENT OF A DISORDER OR DISEASE ASSOCIATED WITH BBB PERMEABILITY” (BioAge Labs, Inc., priority 2022, published 2024).

Experiments:
Format in all cases: cell-based
[1] = tested on: NF-κB signaling pathway in astrocytes; experiment: RT Profiler PCR Array, mouse NF-κB Signaling Targets, in astrocytes; settings: RAC+BGE-105 [250 nM]
Method: To stimulate astrocytes into a reactive state found in aging and neurodegenerative diseases per previous publications (Liddelow et al., 2017; Barbar et al., 2020), a combination of the cytokines TNF-α and IL-1α, and complement factor C1q, were added at 30 ng/mL, 3 ng/mL, and 400 ng/mL, respectively, into astrocyte culture media to make ‘reactive astrocyte cocktail’ (RAC) media. […] Bachem, Cat. #4029110), BAY-11-7082 (50 μM; Abcam, Cat. #ab141228) or equal volume of vehicle (0.01% DMSO in PBS) (hereafter referred to as ‘RAC treatment’). […] Total RNA purity and concentration was assessed using NanoDrop (ThermoFisher). 500 ng of RNA was used for cDNA synthesis using High-Capacity cDNA Reverse Transcription Kit (Fisher Scientific, Cat. #43-749-66) and total volume of cDNA was diluted to a final concentration of 2 ng/μ1. Gene expression was assessed using a RT Profiler PCR Array (Qiagen, Cat. #330231) specific to mouse NF-κB Signaling Targets according to manufacturer's protocol.

Embryonic rat neurons = experiment: Neuronal survival after RAC-conditioned media (ApoTox-Glo Triplex Assay)
Text: Mice were handled in accordance with principles and guidelines established by the “Guide for the Care and Use of Laboratory Animals” and overseen by the BioAge Lab's Institutional Animal Care and Use Committee (IACUC). Mouse primary astrocytes were isolated and cultured in 0.01% poly-L-lysine coated 6- or 12-well tissue culture plates at 200,000 or 120,000 cells/well, respectively, with astrocyte growth media as previously described in (Lundquist et al. 2022. Knockdown of Astrocytic Monocarboxylate Transporter 4 in the Motor Cortex Leads to Loss of Dendritic Spines and a Deficit in Motor Learning. Mol Neurobiol 59, 1002-1017). Embryonic rat neurons were purchased from ScienCell (Cat. #R1550) and cultured in neuronal media (ScienCell, Cat. #1521) per manufacturer's protocol, with slight modifications. Briefly, neurons were thawed and resuspended in neuronal media with the addition of 1 μg laminin (Sigma, Cat. #L2020) per 1 mL culture media, then plated in 0.01% poly-L-lysine coated 96-well tissue culture plates at 60,000 cells/well. […]
For analysis of neuronal survival, culture media was collected after RAC treatment and added directly to rat neurons (previously described above) for 24 hours. After exposure, neuronal viability was assessed with the ApoTox-Glo Triplex Assay according to manufacturer's protocol (Promega, Cat. #G6320). […]

[2] = tested on: primary SOD1^G93A mouse astrocytes; experiment: Primary SOD1^G93A mouse astrocytes: cytokine release and NF-κB signaling
Text: The study characterizes effects of BGE-105 on primary astrocytes derived from wildtype and SOD1^G93A mice in vitro. This includes measuring effects on gene expression, secretion of inflammatory cytokines, and glutamate uptake.
The study utilizes primary mouse astrocyte and neuron cultures generated from the SOD1^G93A mouse model of familial ALS as previously described (Lundquist et al. 2019. Exercise induces region-specific remodeling of astrocyte morphology and reactive astrocyte gene expression patterns in male mice. Journal of Neuroscience Research, 97(9), 1081-1094) with some modifications. Briefly, whole spinal cords are resected from PNDO-4 (postnatal day) SOD1^G93A+ pups and wildtype littermates. […]
Astrocytes from wildtype and SOD1^G93A mice are first studied in isolation to compare transcriptomic and cytokine release profiles. […] ACM (astrocyte-conditioned media) are analyzed for release of cytokines and neurotrophic factors using Mouse Proteome Profiler Arrays (R&D Systems), and commercially available ELISAs (for select cytokines from protein arrays). Astrocytic gene expression are analyzed by RT-qPCR, and astrocyte protein expression are analyzed by western blotting as previously described (Lundquist et al, 2022).

## COc1cccc(OC)c1-n1c(NS(=O)(=O)[C@@H](C)[C@H](C)c2ncc(C)cn2)nnc1-c1cncc(C)c1 [BGE-105, (2S,3R)—N-(4-(2,6-dimethoxyphenyl)-5-(5-methyl-3-pyridinyl)-4H-1,2,4-triazol-3-yl)-3-(5-methyl-2-pyrimidinyl)-2-butanesulfonamide]
[1]
  decrease of Cxcl3 expression: 55%
  increase of Csf3 expression: 16%
  increase of Il2 expression: 184%
Embryonic rat neurons; RAC+ex105 [50 nM], added directly to neurons in addition to the toxic RAC media
  cell viability relative to RAC, exogenous BGE-105: did not provide statistical change
Embryonic rat neurons; media of astrocytes treated with RAC+BGE105 [250 nM], added to neurons 24 hours
  increase of cellular viability as compared to RAC: about 30%
[2]; 250 nM BGE-105, 24 hours
  release of proinflammatory cytokines into astrocyte conditioned media (ACM): release less proinflammatory cytokines
[2]; untreated versus BGE-105 treated SOD1^G93A astrocytes
  NF-κB signaling activity: changes to NF-κB signaling activity
